# Where two headings read alike, the source gives them in different places. Numbered stars: 1 amine (or outer) side, 2 acyl side, 3 side chain; on linkers, the order of the positions; unused ones are H or OH. Square brackets hold non-standard residues; d marks the D form. Side chains are listed from the residue outwards. * marks the point of attachment. C18 diacid = O=C(O)CCCCCCCCCCCCCCCCC(=O)*; γGlu = O=C(O)[C@H](CCC(=O)[*:2])N[*:1]; AEEA = NCCOCCOCC(=O)O; Aib = CC(C)(N)C(=O)O
# Key:
# [1] = Chemical stability assessment in formulation (UPLC-UV-MS purity loss at 37° C.); assay type: physicochemical; conditions: 8 mM phosphate buffer pH 7.4, 1 mg/mL, 2 weeks
# Summary of the method: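 Peptides at target 1 mg/mL in 8 mM phosphate buffer, pH adjusted to 7.4, incubated in capped vials at 37° C. and sampled over 2 weeks, frozen until analysis. Purity followed by UPLC-UV-MS with a 0.1% formic acid water/acetonitrile gradient.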
# [2] = target: T1, human GLP-1 receptor (hGLP-1R) (Homo sapiens, UniProt P43220); assay: GLP-1 receptor assay, method A (CRE-luciferase reporter, BHK cells); assay type: cell-based
# T1 construct: expressed in transfected cells
# T1 sequence (P43220 24-463): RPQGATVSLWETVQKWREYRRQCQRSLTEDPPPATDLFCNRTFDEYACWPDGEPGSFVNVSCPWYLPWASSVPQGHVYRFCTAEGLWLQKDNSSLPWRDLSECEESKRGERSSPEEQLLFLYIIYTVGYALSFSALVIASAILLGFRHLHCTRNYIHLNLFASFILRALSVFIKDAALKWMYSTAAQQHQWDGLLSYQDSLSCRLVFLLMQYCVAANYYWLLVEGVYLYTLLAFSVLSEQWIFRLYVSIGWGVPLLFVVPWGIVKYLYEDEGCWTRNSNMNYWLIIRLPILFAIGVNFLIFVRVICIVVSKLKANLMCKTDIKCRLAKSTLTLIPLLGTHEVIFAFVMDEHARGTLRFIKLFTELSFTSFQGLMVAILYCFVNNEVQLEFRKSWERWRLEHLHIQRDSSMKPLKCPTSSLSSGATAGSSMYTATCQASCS
# Summary of the method: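 BHK cells expressing hGLP-1R with a CRE-luciferase reporter were thawed from frozen stocks and exposed to compound for 3 hours at 37° C in 5% CO2. The assay buffer was phenol red-free DMEM with 10 mM HEPES, 1% (w/v) ovalbumin and 0.1% Pluronic F-68, with or without 1% (w/v) HSA.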
# [3] = target: T2, human amylin receptor (hAMYR3) (Homo sapiens, UniProt O60896+P30988); assay: Amylin receptor assay, method A (CRE-luciferase reporter, BHK cells); assay type: cell-based
# T2 construct: host or cells: BHK cells (Hollex-1 line expressing hCTR(a) and CRE-Luc), further transfected with human RAMP3
# T2 sequence (P30988 25-474): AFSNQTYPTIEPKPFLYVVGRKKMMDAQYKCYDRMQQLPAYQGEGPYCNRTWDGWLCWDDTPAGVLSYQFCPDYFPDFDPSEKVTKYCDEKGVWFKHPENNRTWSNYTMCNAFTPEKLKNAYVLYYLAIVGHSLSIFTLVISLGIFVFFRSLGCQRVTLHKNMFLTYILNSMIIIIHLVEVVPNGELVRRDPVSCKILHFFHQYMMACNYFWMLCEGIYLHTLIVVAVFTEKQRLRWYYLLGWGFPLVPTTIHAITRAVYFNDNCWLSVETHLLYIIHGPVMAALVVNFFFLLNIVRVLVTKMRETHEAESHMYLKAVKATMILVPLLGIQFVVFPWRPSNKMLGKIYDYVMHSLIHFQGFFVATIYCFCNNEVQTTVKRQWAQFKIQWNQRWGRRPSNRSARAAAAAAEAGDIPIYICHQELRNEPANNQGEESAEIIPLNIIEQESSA
# T2 sequence (O60896 24-148): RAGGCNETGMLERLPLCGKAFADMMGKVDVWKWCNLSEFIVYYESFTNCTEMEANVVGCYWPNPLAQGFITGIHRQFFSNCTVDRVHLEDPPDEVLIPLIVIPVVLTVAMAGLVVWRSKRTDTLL
# [4] = target: T3, human GIP receptor (hGIPR) (Homo sapiens, UniProt P48546); assay: GIP receptor assay, method A (CRE-luciferase reporter, BHK cells); assay type: cell-based
# T3 construct: expressed in transfected cells
# T3 sequence (P48546 22-466): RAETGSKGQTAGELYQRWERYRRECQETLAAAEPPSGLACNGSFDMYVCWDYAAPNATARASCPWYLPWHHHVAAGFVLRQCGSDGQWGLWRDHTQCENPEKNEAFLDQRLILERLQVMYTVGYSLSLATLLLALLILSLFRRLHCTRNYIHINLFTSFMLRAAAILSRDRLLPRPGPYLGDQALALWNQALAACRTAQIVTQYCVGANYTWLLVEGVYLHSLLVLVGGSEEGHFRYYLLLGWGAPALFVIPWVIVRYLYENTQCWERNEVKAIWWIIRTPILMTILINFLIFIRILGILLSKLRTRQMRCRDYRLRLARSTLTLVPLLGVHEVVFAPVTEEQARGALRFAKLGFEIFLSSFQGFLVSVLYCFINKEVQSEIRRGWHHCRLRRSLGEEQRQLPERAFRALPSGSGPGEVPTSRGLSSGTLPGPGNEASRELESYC
# Summary of the method: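 BHK cells co-expressing hGIPR and a CRE-luciferase reporter, plated 21-23 h before assay, stimulated 3 h at 37 °C with compounds (7-point 10-fold titration, duplicates) in ovalbumin-containing DMEM buffer with or without 1% HSA final. Luminescence read; EC50 (pM) from four-parameter logistic fit with shared Hill slope.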
# [5] = hGLP-1R Potency, 1% HSA, EC50, method A, in the presence of 1% HSA
# [6] = method A, absence of HSA, read-out: hGLP-1R Potency, no HSA, EC50
# [7] = hAMYR3 Potency, 1% HSA, EC50, method A, in the presence of 1% HSA
# [8] = method A, absence of HSA, read-out: hAMYR3 Potency, no HSA, EC50
# [9] = hGIPR Potency, 1% HSA, EC50, method A, in the presence of 1% HSA
# [10] = method A, absence of HSA, read-out: hGIPR Potency, no HSA, EC50
Molecule,Purity loss per week at 37° C. [1],"EC50 [2, 5]","EC50 [2, 6]","EC50 [3, 7]","EC50 [3, 8]","EC50 [4, 9]","EC50 [4, 10]"
CC[C@H](C)[C@H](NC(=O)[C@H](CCC(=O)O)NC(=O)[C@H](CCC(=O)O)NC(=O)[C@H](CC(C)C)NC(=O)[C@H](CC(C)C)NC(=O)[C@H](CCCCNC(=O)COCCOCCNC(=O)COCCOCCNC(=O)CC[C@H](NC(=O)CCCCCCCCCCCCCCCCCCC(=O)O)C(=O)O)NC(=O)[C@H](CO)NC(=O)[C@H](Cc1ccc(O)cc1)NC(=O)[C@H](CC(=O)O)NC(=O)[C@H](CO)NC(=O)[C@@H](NC(=O)[C@H](Cc1ccccc1)NC(=O)[C@@H](NC(=O)CNC(=O)[C@H](CCC(=O)O)NC(=O)C(C)(C)NC(=O)[C@@H](N)Cc1ccc(O)cc1)[C@@H](C)O)[C@@H](C)O)C(=O)N[C@@H](C)C(=O)N[C@@H](C)C(=O)N[C@@H](CCCNC(=N)N)C(=O)N[C@@H](CCC(=O)O)C(=O)N[C@@H](Cc1ccccc1)C(=O)N[C@H](C(=O)N[C@@H](CCC(=O)O)C(=O)N[C@@H](Cc1c[nH]c2ccccc12)C(=O)N[C@@H](CC(C)C)C(=O)N[C@@H](CC(C)C)C(=O)N[C@@H](C)C(=O)NCC(=O)NCC(=O)N1CCC[C@H]1C(=O)N[C@@H](CO)C(=O)N[C@@H](CO)C(=O)NCC(=O)N[C@@H](C)C(=O)NCC(=O)N[C@@H](C)C(=O)N[C@@H](CO)C(=O)N[C@@H](Cc1c[nH]cn1)C(=O)N[C@@H](CC(C)C)C(=O)N[C@@H](CO)C(=O)N[C@H](C(=O)N[C@@H](C)C(=O)N[C@@H](CCC(N)=O)C(=O)N[C@@H](CC(C)C)C(=O)NCC(=O)N[C@@H](CCCNC(=N)N)C(=O)N[C@@H](CC(C)C)C(=O)N[C@@H](CO)C(=O)N[C@@H](C)C(=O)N[C@@H](CCC(=O)O)C(=O)N[C@@H](CC(C)C)C(=O)N[C@@H](Cc1c[nH]cn1)C(=O)N[C@@H](CCC(N)=O)C(=O)N[C@@H](CC(C)C)C(=O)N[C@@H](C)C(=O)N[C@H](C(=O)N[C@@H](CCC(=O)O)C(=O)N1CCC[C@H]1C(=O)N[C@@H](CCCNC(=N)N)C(=O)N[C@H](C(=O)N[C@@H](CCC(=O)O)C(=O)N[C@H](C(=O)NCC(=O)N[C@@H](CO)C(=O)NCC(=O)N[C@@H](CO)C(=O)N1CCC[C@H]1C(N)=O)[C@@H](C)O)[C@@H](C)O)[C@@H](C)O)[C@@H](C)O)[C@@H](C)CC [Compound 184],1.0%,,,,,,
CC[C@H](C)[C@H](NC(=O)[C@H](CCC(=O)O)NC(=O)[C@H](CCC(=O)O)NC(=O)[C@H](CC(C)C)NC(=O)[C@H](CC(C)C)NC(=O)[C@H](CCCCNC(=O)COCCOCCNC(=O)COCCOCCNC(=O)CC[C@H](NC(=O)CCCCCCCCCCCCCCCCCCC(=O)O)C(=O)O)NC(=O)[C@H](CO)NC(=O)[C@H](Cc1ccc(O)cc1)NC(=O)[C@H](CC(=O)O)NC(=O)[C@H](CO)NC(=O)[C@@H](NC(=O)[C@H](Cc1ccccc1)NC(=O)[C@@H](NC(=O)CNC(=O)[C@H](CCC(=O)O)NC(=O)C(C)(C)NC(=O)[C@@H](N)Cc1ccc(O)cc1)[C@@H](C)O)[C@@H](C)O)C(=O)N[C@@H](C)C(=O)N[C@@H](C)C(=O)N[C@@H](CCCNC(=N)N)C(=O)N[C@@H](CCC(=O)O)C(=O)N[C@@H](Cc1ccccc1)C(=O)N[C@H](C(=O)N[C@@H](CCC(=O)O)C(=O)N[C@@H](Cc1c[nH]c2ccccc12)C(=O)N[C@@H](CC(C)C)C(=O)N[C@@H](CC(C)C)C(=O)N[C@@H](C)C(=O)NCC(=O)NCC(=O)N1CCC[C@H]1C(=O)N[C@@H](CO)C(=O)N[C@@H](CO)C(=O)N[C@@H](CCC(=O)O)C(=O)N[C@@H](C)C(=O)NCC(=O)N[C@@H](C)C(=O)N[C@@H](CO)C(=O)N[C@@H](Cc1c[nH]cn1)C(=O)N[C@@H](CC(C)C)C(=O)N[C@@H](CO)C(=O)N[C@H](C(=O)N[C@@H](C)C(=O)N[C@@H](CCC(N)=O)C(=O)N[C@@H](CC(C)C)C(=O)NCC(=O)N[C@@H](CCCNC(=N)N)C(=O)N[C@@H](CC(C)C)C(=O)N[C@@H](CO)C(=O)N[C@@H](C)C(=O)N[C@@H](CCC(=O)O)C(=O)N[C@@H](CC(C)C)C(=O)N[C@@H](Cc1c[nH]cn1)C(=O)N[C@@H](CCC(N)=O)C(=O)N[C@@H](CC(C)C)C(=O)N[C@@H](C)C(=O)N[C@H](C(=O)N[C@@H](CCC(=O)O)C(=O)N1CCC[C@H]1C(=O)N[C@@H](CCCNC(=N)N)C(=O)N[C@H](C(=O)N[C@@H](CCC(=O)O)C(=O)N[C@H](C(=O)NCC(=O)N[C@@H](CO)C(=O)NCC(=O)N[C@@H](CO)C(=O)N1CCC[C@H]1C(N)=O)[C@@H](C)O)[C@@H](C)O)[C@@H](C)O)[C@@H](C)O)[C@@H](C)CC [Compound 185],1.7%,,,,,,
CC[C@H](C)[C@H](NC(=O)[C@H](CCC(=O)O)NC(=O)[C@H](CCC(=O)O)NC(=O)[C@H](CC(C)C)NC(=O)[C@H](CC(C)C)NC(=O)[C@H](CCCCNC(=O)COCCOCCNC(=O)COCCOCCNC(=O)CC[C@H](NC(=O)CCCCCCCCCCCCCCCCCCC(=O)O)C(=O)O)NC(=O)[C@H](CO)NC(=O)[C@H](Cc1ccc(O)cc1)NC(=O)[C@H](CC(=O)O)NC(=O)[C@H](CO)NC(=O)[C@@H](NC(=O)[C@H](Cc1ccccc1)NC(=O)[C@@H](NC(=O)CNC(=O)[C@H](CCC(=O)O)NC(=O)C(C)(C)NC(=O)[C@@H](N)Cc1ccc(O)cc1)[C@@H](C)O)[C@@H](C)O)C(=O)N[C@@H](C)C(=O)N[C@@H](C)C(=O)N[C@@H](CCCNC(=N)N)C(=O)N[C@@H](CCC(=O)O)C(=O)N[C@@H](Cc1ccccc1)C(=O)N[C@H](C(=O)N[C@@H](CCC(=O)O)C(=O)N[C@@H](Cc1c[nH]c2ccccc12)C(=O)N[C@@H](CC(C)C)C(=O)N[C@@H](CC(C)C)C(=O)N[C@@H](C)C(=O)NCC(=O)NCC(=O)N1CCC[C@H]1C(=O)N[C@@H](CO)C(=O)N[C@@H](CO)C(=O)NCC(=O)N[C@@H](C)C(=O)NCC(=O)N[C@@H](C)C(=O)N[C@@H](CO)C(=O)N[C@@H](CCC(=O)O)C(=O)N[C@@H](CC(C)C)C(=O)N[C@@H](CO)C(=O)N[C@H](C(=O)N[C@@H](C)C(=O)N[C@@H](CCC(N)=O)C(=O)N[C@@H](CC(C)C)C(=O)NCC(=O)N[C@@H](CCCNC(=N)N)C(=O)N[C@@H](CC(C)C)C(=O)N[C@@H](CO)C(=O)N[C@@H](C)C(=O)N[C@@H](CCC(=O)O)C(=O)N[C@@H](CC(C)C)C(=O)N[C@@H](Cc1c[nH]cn1)C(=O)N[C@@H](CCC(N)=O)C(=O)N[C@@H](CC(C)C)C(=O)N[C@@H](C)C(=O)N[C@H](C(=O)N[C@@H](CCC(=O)O)C(=O)N1CCC[C@H]1C(=O)N[C@@H](CCCNC(=N)N)C(=O)N[C@H](C(=O)N[C@@H](CCC(=O)O)C(=O)N[C@H](C(=O)NCC(=O)N[C@@H](CO)C(=O)NCC(=O)N[C@@H](CO)C(=O)N1CCC[C@H]1C(N)=O)[C@@H](C)O)[C@@H](C)O)[C@@H](C)O)[C@@H](C)O)[C@@H](C)CC [Compound 186],1.0%,,,,,,
H[Aib]HGTFTSDYSILLEEQAAREFIEWLLAGGPSK([AEEA-AEEA-γGlu-C18 diacid])GAGQAPGQAPGASHLSTAQTQRLSAELHELATLPRTETGSGSP-NH2 [Compound 47],2.6%,67.5 pM,3.15 pM,0.0558 nM,0.00257 nM,162 pM,2.02 pM
H[Aib]HGTFTSDYSILLEEQAAREFIEWLLAGGPSK([AEEA-AEEA-γGlu-C18 diacid])GEASQLSTAALGRLSAELHGLATLPRTETGSGSP-NH2 [Compound 65],2.1%,100 pM,4.86 pM,0.127 nM,0.00284 nM,118 pM,1.89 pM
H[Aib]HGTFTSDYSILLEEQAAREFIEWLLAGGPSK([AEEA-AEEA-γGlu-C18 diacid])GEASQLSTAALGRLSAELHRLATLPRTETGSGSP-NH2 [Compound 73],2.8%,54.1 pM,4.55 pM,0.0615 nM,0.00199 nM,96.5 pM,4.98 pM
H[Aib]HGTFTSDYSILLEEQAAREFIEWLLAGGPSSGAGQAPGQAPGASHLSTAQTQRLSAELHRLATLPK([AEEA-AEEA-γGlu-C18 diacid])TETGSGSP-NH2 [Compound 92],2.8%,13.4 pM,2.55 pM,0.0751 nM,0.00264 nM,8.53 pM,3.12 pM
H[Aib]HGTFTSDYSILLEEQAAREFIEWLLAGGPSSGEASHLSTAQTQRLSAELHK([AEEA-AEEA-γGlu-C18 diacid])LATLPRTETGSGAP-NH2 [Compound 85],2.0%,30.3 pM,3.52 pM,0.25 nM,0.0044 nM,14.6 pM,2.71 pM

# — patent US20260174875A1 (Novo Nordisk A/S, priority 2023, published 2026)
